In brackets after ≈: the same amount, converted by molar mass.
Tests used:
[1] = system: production of TNFα in U937; test: Releasing TNFα from U937 induced by LPS; assay type: cell-based; conditions: Homo sapiens, U-937; PMA-differentiated U937, LPS 100 ng/ml, 4 h; read-out: IC50 value that the compound inhibits the production of TNFα
From the text: Cytokine regulation in human monocytes has shown that the p38 pathway is the key to the biosynthesis of a plurality of pro-inflammatory cytokines including TNFα, IL-1β and IL-6. Therefore, the inhibition of the p38 MAPK pathway is to reduce inflammatory response by reducing the biosynthesis of the pro-inflammatory cytokines. […] This is a reflection of the effect of the compound in the present invention to facilitate reduction of inflammation, which is useful in the treatment of various diseases, including chronic inflammatory diseases, acute inflammatory diseases, or self-inflammatory diseases. The potency and efficacy of the p38 inhibitor in blocking cytokine production are evaluated using a human U937 cell line.
A 1640 medium with an article number being A10491-01, Gibco; penicillin-streptomycin with an article number being 15140-122, Gibco; fetal bovine serum with an article number being 10099-141C, Gibco; PBS with an article number being 10010-031, Gibco; LPS with an article number being L2880, Sigma; PMA with an article number being P1585, Sigma; dimethyl sulfoxide with an article number being D8418-1L, Sigma; and a TNFα kit with an article number being K151QWD-4, MSD.
A 96-well plate with an article number being 3599, Corning; a plate-vibrating device with an article number being QB-9002, QILINBEIER; a centrifuge with an article number being 5810R, Eppendorf; a carbon dioxide incubator with an article number being 371, Thermo; a counter with an article number being C10281, Gibco; a microscope with an article number being CKX41, OLYMPUS; and an MSD plate reader with an article number being 1201 MESO SECTOR 600, MSD.
U937, ATCC with an article number being CRL-1593.2.
About 2 mg of a drug is weighted; a mother solution is prepared to 10 mM (which is calculated by free alkali) by means of DMSO; and the mother solution is diluted 10-fold to 1 mM, and then is successively diluted 4-fold to 250 μM, 62.5 μM, 15.6 μM, 3.9 μM, 0.97 μM, 0.24 μM, and 0.061 μM. The above series of diluted DMSO drugs is diluted 20-fold as working solutions by using media.
At Day 0, 10000/well inoculation is performed, stimulation is performed for 48 h with 20 ng/ml of PMA, and culture is performed at 37° C., 5% CO2. • At Day 2, 1. Supernatant is removed from differentiated U937, cleaning is performed once with PBS, and 96 μl of the 1640 medium is added. • 2. 2 μl of the compound containing (DMSO with a final concentration being 0.1%), and culture is performed for 30 min at 37° C., 5% CO2. • 3. 2 μl of LPS (a final concentration being 100 ng/ml) is added, cells are stimulated, and culture is performed for 4 h at 37° C., 5% CO2. • 4. Centrifugation is performed, supernatant is taken, and content of TNFα in the supernatant is determined through ELISA.
The content of TNFα corresponding to each well is calculated by using a standard curve in the kit.
The compound IC50 is calculated by using a GraphPad nonlinear fitting formula, and for an experimental result, refer to Table 1.

[2] = Determination of solubility; assay type: physicochemical; conditions: aqueous buffer, thermodynamic from solid, 37° C. 1 h
Experimental: About 0.5 mg of a to-be-tested sample in a centrifuge tube is weighted, an appropriate amount of DMSO is added to completely dissolve the sample, and then methanol is added to make up to 1 ml.
(If there are more pH values to be investigated, the preparation method may be deduced by analogy).
3. The prepared control solution and test solution are simultaneously put into a 37° C. water bath and heated for 1 h, after 1 h, the solutions are taken out and cooled to room temperature, and then the solutions are filtered with a 0.22 μm filter membrane for sample injection.
4. The concentration of the sample in the test solution is calculated according to C=(A*(ms/vs))/AS, and experiment results are shown in Table 2.
Note: ms, vs and AS are the weight, volume and peak area of the sample in the control solution, respectively.
A is the peak area of the test solution.

[3] = target: p38α/MK2 complex (Homo sapiens, UniProt P49137+Q16539); test: p38α/MK2 complex kinase screening experiment (IMAP FP); assay type: biochemical; conditions: p38α 0.2 nM, MK2 unactive 1 nM, HSP27 substrate 1 μM, ATP 10 μM; read-out: IC50 value that the compound inhibits p38α/MK2 complex
Sequence of p38α/MK2 complex (Q16539 whole entry): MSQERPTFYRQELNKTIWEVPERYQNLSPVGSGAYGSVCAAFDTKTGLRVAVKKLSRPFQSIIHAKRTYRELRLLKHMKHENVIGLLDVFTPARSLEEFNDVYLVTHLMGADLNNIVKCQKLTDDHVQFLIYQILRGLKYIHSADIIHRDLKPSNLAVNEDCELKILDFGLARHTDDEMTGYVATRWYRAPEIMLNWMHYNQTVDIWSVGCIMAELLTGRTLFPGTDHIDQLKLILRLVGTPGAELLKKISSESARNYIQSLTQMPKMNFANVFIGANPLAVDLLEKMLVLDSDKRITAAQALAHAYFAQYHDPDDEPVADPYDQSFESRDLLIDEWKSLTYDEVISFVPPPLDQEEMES
Sequence of p38α/MK2 complex (P49137 whole entry): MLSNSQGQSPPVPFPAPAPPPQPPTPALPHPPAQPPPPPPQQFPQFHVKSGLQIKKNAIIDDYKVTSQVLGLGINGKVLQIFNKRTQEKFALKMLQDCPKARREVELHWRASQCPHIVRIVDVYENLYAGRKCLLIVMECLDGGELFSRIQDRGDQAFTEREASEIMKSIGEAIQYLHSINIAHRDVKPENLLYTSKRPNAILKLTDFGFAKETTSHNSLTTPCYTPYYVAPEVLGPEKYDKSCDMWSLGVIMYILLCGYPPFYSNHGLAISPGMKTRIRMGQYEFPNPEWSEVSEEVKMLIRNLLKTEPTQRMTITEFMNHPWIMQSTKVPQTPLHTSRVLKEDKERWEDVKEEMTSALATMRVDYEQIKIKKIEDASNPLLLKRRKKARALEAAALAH
Experimental: A certain amount of a drug is weighted and prepared into a 10 mM of mother solution by using DMSO; the mother solution is diluted to 100 μM (100× working solution) in two steps; and then, the solution is diluted 3-fold to 33.33 μM, 11.11 μM, 3.70 μM, 1.23 μM, 0.41 μM, 0.14 μM, 0.046 μM, 0.015 μM, and 0.005 μM, successively. DMSO control is also arranged.
Then, a series of diluted DMSO drugs are diluted 25 folds with 1×IMAP Reaction Buffer as a 4× drug working solution.
10 gradient concentrations and 2 duplicated wells are set to each group of compounds; and a DMSO control group and a negative control group (DMSO, no ATP) are additionally set.
• c), after 1 h of incubation at room temperature, 1× Progressive Binding Solution is added to end the enzymatic reaction; after 30 min of incubation, a BMGPHERASTER FSX multifunctional microplate reader is used to detect a Fluorescence Polarization (FP) signal [FP(Ex485/Em520/Em520 nm)].

[4] = Pharmacokinetic experiment in Beagle dogs (IV and PO); assay type: in vivo; conditions: male, dog, plasma
From the text: Polyethylene glycol 400 (batch number: GORKREUT, Saen Chemical Technology (Shanghai) Co., Ltd.); DMSO (batch number: 20200319, GHTECH (Guangdong) Co., Ltd.); and normal saline (batch number: C20052604, Jiangxi Kelun Pharmaceutical Co., Ltd.). An LC-MS instrument (Thermo Fisher Ultimate 3000 UPLC, TSQ QUANTUM ULTRA TSQ Quantum GC).
5 male Beagle dogs with weights being 5 kg to 7 kg, purchased from Beijing Mars Biotechnology Co., Ltd. […]
After the above mixture is given to the dogs through intragastric administration (n=3) or intravenous administration (n=2), about 1 mL of blood is collected from the forelimb or hindlimb vein with a scalp needle, respectively, at 5 min (intravenous administration only), 15 min, 30 min, 1 h, 2 h, 4 h, 6 h, 8 h, 24 h to put into blood collection tubes containing EDTA-K2 anticoagulant; centrifugation is performed for 10 min at 4000 rpm to separate plasma; and then the tubes are stored at −80° C. for testing.
A certain amount of a test sample is accurately weighted and dissolved with DMSO to 2 mg/mL, as a stock solution. The stock solution is diluted to 30000, 10000, 3000, 1000, 300, 100, 50, 30, and 10 ng/mL by using acetonitrile:water (1:1), to obtain standard curve working solutions. 5 μL of the working solution is added to 45 μL of blank canine plasma; and well mixing is performed through vortex, to prepare into standard curve samples equivalent to plasma concentrations of 3000, 1000, 300, 100, 30, 10, 5, 3, and 1 ng/mL. 30 μL of the standard curve sample and the collected plasma sample (plasma collected at 5 min, 15 min, and 30 min of intravenous administration is diluted 5-fold) are added to 150 μL of a propranolol acetonitrile solution (internal standard, 50 ng/mL) to precipitate protein, then 100 μL of water is added to well mix through vortex; centrifugation is performed for 5 min at 4000 rpm; and supernatant is taken for LC-MS analysis. LC-MS detection conditions include the following.
Chromatographic column: Waters ACQUITY™ PREMIER HSS T3, 50*2.1 mm, 1.8 μm.
Mobile phase A: water (0.1% formic acid); mobile phase B: acetonitrile; flow rate: 0.5 mL/min; and gradient elution is shown in Table 3 below.
After LC-MS detection of blood drug concentration, and a non-compartment model of WinNonlin 6.1 software is adopted to calculate pharmacokinetic parameters of beagle dogs after administration.

IC50 [1] [nM] | IC50 [3] [nM] | SMILES | other results
6.86 |  | Cc1cnc(-n2cccc(C(C)(C)O)c2=O)cc1-n1c(C)cc(OCc2ncccc2F)c(Cl)c1=O [Embodiment 20, 3″-chloro-4″-((3-fluoropyridine-2-yl)methoxy)-3-(2-hydroxypropane-2-yl)-5′,6″-dimethyl-2H,2″H-[1,2′:4′,1″-terpyridine]-2,2″-diketone] | solubility at 1 h ([2]; pH = 2.0, PBS buffer): 769 µg/mL (≈ 1500 µM); solubility at 1 h ([2]; pH = 7.4, PBS buffer): 773 µg/mL (≈ 1510 µM)
 | 3.14 | CCc1cnc(-n2cccc(C(C)(C)O)c2=O)cc1-n1c(C)cc(OCc2ncc(F)cc2F)c(Cl)c1=O [Embodiment 42, 3″-chloro-5′-ethyl-4″-((3,5-difluoropyridine-2-yl)methoxy)-3-(2-hydroxypropane-2-yl)-6″-methyl-2H,2″H-[1,2′:4′,1″-terpyridine]-2,2″-diketone] | 
1.73 | 1.33 | Cc1cnc(-n2cccc(C(C)(C)O)c2=O)cc1-n1c(C)cc(OCc2cccc(F)c2F)c(Cl)c1=O [Embodiment 17, 3″-chloro-4″-((2,3-difluorobenzyl)oxy)-3-(2-hydroxypropane-2-yl)-5′,6″-dimethyl-2H,2″H-[1,2′:4′,1″-terpyridine]-2,2″-diketone] | 
 |  | Cc1cnc(-n2cccc(C(C)(C)O)c2=O)cc1-n1c(C)cc(OCc2ncc(F)cc2F)cc1=O [Embodiment 2, 4″-((3,5-difluoropyridine-2-yl)methoxy)-3-(2-hydroxypropane-2-yl)-5′,6″-dimethyl-2H,2″H-[1,2′:4′,1″-terpyridine]-2,2″-diketone] | solubility at 1 h ([2]; pH = 2.0, PBS buffer): 192 µg/mL (≈ 388 µM); solubility at 1 h ([2]; pH = 7.4, PBS buffer): 234 µg/mL (≈ 474 µM)
14.7 |  | Cc1cnc(-n2cccc(C(C)(C)O)c2=O)cc1-n1c(C)cc(OCc2ccccn2)c(Cl)c1=O [Embodiment 3] | solubility at 1 h ([2]; pH = 2.0, PBS buffer): 1290 µg/mL (≈ 2610 µM); solubility at 1 h ([2]; pH = 7.4, PBS buffer): 140 µg/mL (≈ 284 µM)
 | 2.85 | Cc1cnc(-n2cccc(C3CCOCC3)c2=O)cc1-n1c(C)cc(OCc2ncc(F)cc2F)c(Cl)c1=O [Embodiment 40, 3″-chloro-4″-((3,5-difluoropyridine-2-yl)methoxy)-5′,6″-dimethyl-3-(tetrahydro-2H-pyran-4-yl)-2H, 2″H-[1,2′:4′,1″-terpyridine]-2,2″-diketone] | 
 |  | Cc1cnc(-n2cccc(C(C)(C)O)c2=O)cc1-n1c(C)cc(OCc2ncc(F)cc2F)c(Cl)c1=O (racemic) [Embodiment 1, 3″-chloro-4″-((3,5-difluoropyridine-2-yl)methoxy)-3-(2-hydroxypropane-2-yl)-5′,6″-dimethyl-2H,2″H-[1,2′:4′,1″-terpyridine]-2,2″-diketone] | AUC(0-t) ([4]; IV 1 mg/kg): 2870 ng·h/mL; Cmax ([4]; IV 1 mg/kg): 1510 ng/mL; clearance ([4]; IV 1 mg/kg): 6.15 mL/min/kg; bioavailability ([4]; PO 5 mg/kg vs IV 1 mg/kg): 229%
3.31 | 3.35 | Cc1cnc(-n2cccc(C(C)(C)O)c2=O)cc1-n1c(C)cc(OCc2ncc(Br)cc2F)c(Cl)c1=O [Embodiment 16, 3″-chloro-4″-((3-fluoro-5-bromopyridine-2-yl)methoxy)-3-(2-hydroxypropane-2-yl)-5′,6″-dimethyl-2H,2″H-[1,2′:4′,1″-terpyridine]-2,2″-diketone] | 
2.84 | 2.26 | CCC(C)(O)c1cccn(-c2cc(-n3c(C)cc(OCc4ncc(F)cc4F)c(Cl)c3=O)c(C)cn2)c1=O (stereo not shown) [Embodiment 26, 3″-chloro-4″-((3,5-difluoropyridine-2-yl)methoxy)-3-(2-hydroxybutane-2-yl)-5′,6″-dimethyl-2H,2″H-[1,2′:4′,1″-terpyridine]-2,2″-diketone] | 
 | 1.58 | Cc1cnc(-n2cccc(C(C)(C)O)c2=O)cc1-n1c(C)cc(OCc2ncc(F)cc2F)c(Br)c1=O [Embodiment 41, 3″-bromo-4″-((3,5-difluoropyridine-2-yl)methoxy)-3-(2-hydroxypropane-2-yl)-5′,6″-dimethyl-2H,2″H-[1,2′:4′,1″-terpyridine]-2,2″-diketone] | 

SMILES | IC50 [1] [nM] | IC50 [3] [nM] | other results
Cc1cnc(-n2cccc(C(C)(C)O)c2=O)cc1-n1c(C)cc(OCc2ncc(F)cc2F)c(Cl)c1=O (single isomer, unassigned) [Comparative example 1A, reference compound] |  | 0.53 | 

Reference: patent US20240166627A1, “Terpyridinedione compound or salt thereof, and preparation method and application thereof” (SHENZHEN SALUBRIS PHARMACEUTICALS CO., LTD., priority 2021, published 2024)
